Laboratory results as given in patent publication US4839465A, “Di-(D-tryptophyl and/or tetrahydropyridoindolylcarbonyl)-containing peptide amides and process for preparation thereof” (Sterling Drug Inc., priority 1987, dated 1989).
Like-named read-outs stand apart in the source and are kept apart here. Where a SMILES comes first, the peptide text is derived from it. [ ]: non-standard residue; d: D form. Tpi = O=C(O)[C@@H]1Cc2c([nH]c3ccccc23)CN1; dTpi = O=C(O)[C@H]1Cc2c([nH]c3ccccc23)CN1

What was measured:
[1] = tested on: Substance P effect in isolated guinea pig ileum longitudinal muscle; experiment: Guinea pig ileum test, Substance P agonist and antagonist effect; format: cell-based
Protocol: Strips of longitudinal muscle (derived from terminal ileum of adult male guinea pigs (Charles River, 400-600 g.) are mounted in 5-ml. organ baths containing oxygenated Krebs solution containing 1 μM each of atropine and pyrilamine maintained at 30°-33° C. and connected to isometric transducers. Following tissue equilibration and repeated washing (45-60 min.), SP or an appropriate reference agonist is added cumulatively to the bath and contractions of the tissue are recorded. The bath is washed thoroughly and 30-45 min. is allowed to elapse before construction of a second reference agonist curve to assure reproducibility of the responses. Test compounds are similarly evaluated for agonist activity up to a maximum concentration of 10-100 μM. Regression analysis of the linear portion of the log concentration-percent maximal response curves provides the EC50 (and 95% confidence limits), the standard measure of agonist potency. When appropriate, relative molar potency ratios are calculated (EC50 reference/ED50 test drug). Antagonist activity is examined by pretreating thoroughly washed tissues with test compound (using a standard 5-10 min. contact time), then constructing a cumulative dose-response curve to the reference agonist. The effects of several concentrations of test antagonist, pooled across separate experiments, provide dose-ratio (EC50 shift) data for a standard Schild plot analysis, with computation of the pA2.

[2] = biological target: T1, SP receptor (rat brain tissue) (Rattus norvegicus, UniProt P14600); experiment: Rat brain tissue 3H-SP competitive binding; conditions: for Kd: crude rat brain tissue, 3H-SP, read-out: Substance P Competitive Binding KD; for effect on 3H-SP binding: specificity and sensitivity of the binding assay, rat brain tissue
T1 construct: from tissue; host or cells: crude rat brain tissue
Protocol: Crude rat brain tissue is suspended in buffer containing protease inhibitors and calcium ions and magnesium ions and incubated under nitrogen atmosphere with ^3 H-SP and test compound. The bound SP is then separated from free SP by filtration and quantitated by liquid scintillation spectroscopy. This test meets the criteria of reversibility,saturability, sensitivity to known SP agonists and antagonists, and specificity for an SP receptor binding assay.
With regard to reversibility, addition of unlabelled SP causes a gradual decrease in bound ^3 H-SP, showing that SP is not irreversibly bound to the receptors in the tissue. With regard to saturability, the amount of bound ^3 H-SP in the preparation increases in direct proportion to the concentration of ^3 H-SP added until a saturation point is reached. […] With regard to sensitivity, known SP agonists and antagonists inhibit ^3 H-SP binding.
The results are expressed in terms of the equilibrium constant KD in nanomoles per liter (nM), which takes into account the concentration of ^3 H-SP.

[3] = tested on: acetylcholine-induced writhing; experiment: Mouse acetylcholine-induced writhing test; format: in vivo; conditions: intrathecal, acetylcholine 3.2 mg./kg. i.p. five minutes after injection
Protocol: Male Swiss-Webster mice (18-24 g.) are divided into groups of 8-15 mice. A test compound in a vehicle or the vehicle alone is administered intrathecally in a volume of 5 μl by the method of Hylden and Wilcox (European Journal of Pharmacology, vol. 67, pp. 313-316, 1980) except that caudal cutaneous incision is not performed prior to injection. Five minutes after the injection a solution of acetylcholine (3.2 mg./kg., the approximate ED90) in 0.9% aqueous sodium chloride is administered intraperitoneally to each mouse. […] For test compounds which produce a graded dose-response ED50 values with 95% confidence limits are determined by probit analysis of the data.

[4] = tested on: gastric juice secretion; conditions: in vivo; cited from earlier work
[5] = Schild plot, 5-10 min. contact time, guinea pig ileum longitudinal muscle

T1 sequence (P14600 whole entry): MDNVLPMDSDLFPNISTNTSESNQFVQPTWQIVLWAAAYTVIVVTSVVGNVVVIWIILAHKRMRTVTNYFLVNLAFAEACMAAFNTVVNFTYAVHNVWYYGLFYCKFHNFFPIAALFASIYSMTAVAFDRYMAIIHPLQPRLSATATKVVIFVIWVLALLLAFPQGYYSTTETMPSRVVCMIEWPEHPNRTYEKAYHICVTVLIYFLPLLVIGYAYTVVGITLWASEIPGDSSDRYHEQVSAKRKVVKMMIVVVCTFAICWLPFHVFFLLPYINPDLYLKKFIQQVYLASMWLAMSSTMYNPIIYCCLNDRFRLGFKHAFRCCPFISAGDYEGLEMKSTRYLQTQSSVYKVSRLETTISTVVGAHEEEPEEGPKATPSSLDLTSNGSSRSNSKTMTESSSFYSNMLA

Compound | Kd [2] [nM] | Substance P Antagonist pA2 [1, 5] | further results
CSCC[C@H](NC(=O)[C@H](CC(C)C)NC(=O)[C@@H](Cc1c[nH]c2ccccc12)NC(=O)[C@H](Cc1ccccc1)NC(=O)[C@H](N)Cc1c[nH]c2ccccc12)C(N)=O [Example 1, H--trp--Phe--trp--Leu--Met--NH2] (H-[dW]F[dW]LM-NH2) |  |  | EC50 [1]: > 1000 nM; Substance P agonist activity ([1]; guinea pig ileum, not quantified): Some agonist activity was noted
CC(C)C[C@H](NC(=O)[C@@H](Cc1c[nH]c2ccccc12)NC(=O)[C@H](Cc1ccccc1)NC(=O)[C@@H](Cc1c[nH]c2ccccc12)NC(=O)[C@@H]1CCCN1)C(=O)N[C@@H](Cc1ccccc1)C(N)=O [Example 2, H--Pro--trp--Phe--trp--Leu--Phe--NH2] (H-P[dW]F[dW]LF-NH2) | 22 | 6.4 | 
CC(C)C[C@H](NC(=O)[C@@H](Cc1c[nH]c2ccccc12)NC(=O)[C@H](Cc1ccccc1)NC(=O)[C@@H](Cc1c[nH]c2ccccc12)NC(=O)[C@@H]1CCCN1)C(N)=O [Example 3, H--Pro--trp--Phe--trp--Leu--NH2] (H-P[dW]F[dW]L-NH2) | 35 | 5.1 | 
CSCC[C@H](NC(=O)[C@H](CC(C)C)NC(=O)[C@@H](Cc1c[nH]c2ccccc12)NC(=O)[C@H](Cc1ccccc1)NC(=O)[C@H]1Cc2c([nH]c3ccccc23)CN1)C(N)=O [Example 4, H--tpi--Phe--trp--Leu--Met--NH2] (H-[dTpi]F[dW]LM-NH2) | 42 | 6.4 | ED50, protection against acetylcholine-induced writhing [3]: 0.7 μg/mouse
CSCC[C@H](NC(=O)[C@H](CC(C)C)NC(=O)[C@@H](Cc1c[nH]c2ccccc12)NC(=O)[C@H](Cc1ccccc1)NC(=O)[C@@H]1Cc2c([nH]c3ccccc23)CN1)C(N)=O [Example 5, H--Tpi--Phe--trp--Leu--Met--NH2] (H-[Tpi]F[dW]LM-NH2) | 59 |  | 
CC(C)C[C@H](NC(=O)[C@H]1Cc2c([nH]c3ccccc23)CN1C(=O)[C@H](Cc1ccccc1)NC(=O)[C@@H](Cc1c[nH]c2ccccc12)NC(=O)[C@@H]1CCCN1)C(=O)N[C@@H](Cc1ccccc1)C(N)=O [Example 6, H--Pro--trp--Phe--tpi--Leu--Phe--NH2] (H-P[dW]F[dTpi]LF-NH2) | 39 | 6.4 | 
CC(C)C[C@H](NC(=O)[C@@H](Cc1c[nH]c2ccccc12)NC(=O)[C@H](Cc1ccccc1)NC(=O)[C@H](N)Cc1c[nH]c2ccccc12)C(=O)N[C@@H](Cc1ccccc1)C(N)=O [Example 8, H--trp--Phe--trp--Leu--Phe--NH2] (H-[dW]F[dW]LF-NH2) |  |  | Substance P Antagonist pA2 [1]: 6.28
CC(C)C[C@H](NC(=O)[C@@H](Cc1c[nH]c2ccccc12)NC(=O)[C@H](Cc1ccccc1)NC(=O)[C@H]1Cc2c([nH]c3ccccc23)CN1)C(=O)N[C@@H](Cc1ccccc1)C(N)=O [Example 9, H--tpi--Phe--trp--Leu--Phe--NH2] (H-[dTpi]F[dW]LF-NH2) |  |  | Substance P Antagonist pA2 [1]: 6.65
NCC(CC(=O)O)c1ccc(Cl)cc1 (stereo not drawn) [baclofen, reference compound] |  |  | effect on 3H-SP binding [2]: do not affect
COc1cc(CNC(=O)CCCC/C=C/C(C)C)ccc1O [capsaicin, reference compound] |  |  | effect on 3H-SP binding [2]: do not affect
H--Tpi--Bpa--trp--Leu--Phe--NH2 H--Tpi--bpa--trp--Leu--Phe--NH2 (mixture of isomers) [Example 7, H--Tpi--Bpa--trp--Leu--Phe--NH2 H--Tpi--bpa--trp--Leu--Phe--NH2 (mixture of isomers)] |  | 6.25 | 
Z--Tca--Met--Asp--Phe--NH2 [Tca-tetragastrin] |  |  | gastric juice stimulating activity [4]: having gastric juice stimulating activity
